Source: patent publication US20200032249A1, “LABELING, ISOLATION, & ANALYSIS OF RNA FROM RARE CELL POPULATIONS” (priority 2017, published 2020)

System: MDA231 cells expressing CD/UPRT in mouse lungs
Experiment: signal-to-noise ratio of Flura-tagging and TU-tagging in vivo, lung colonization xenograft, RT-PCR
Conditions: 250 mg/kg, 12 h post injection
Method: FIG. 3 a-g. Flura-tagging of mRNA in vivo. FIG. 3a—Schematic diagram of lung colonization xenograft assay used for evaluation of Flura-tagging/Flura-seq. Athymic mice were injected through the tail vein with 50,000 MDA231 cells expressing CD/UPRT and GFP-luciferase. Upon the development of detectable bioluminescent lung metastases (4 weeks), mice were treated with doxycycline to induce CD/UPRT expression and injected with 5-FC. Lungs were harvested, and Flura-tagged mRNAs were immunopurified. FIG. 3b—Comparison of signal-to-noise ratio of Flura-tagging and TU-tagging in vivo. Mice were injected with either 5-FC or TU, the Flura-tagged or TU-tagged mRNAs were purified 12 h post injection, and the relative fold enrichment of representative human housekeeping genes relative to representative murine housekeeping genes (mHPRT1, mLDH1, mPGK1 and mGAPDH), normalized to their corresponding unpurified inputs, were measured by RT-PCR (n=5, ±S.E.). FIG. 3c—Quantification of the number of human cells in the mouse lungs used for Flura-tagging. Half of the mouse lungs used for Flura-tagging in FIG. 3b was dissociated into single cells, and the number of RFP+ cells was quantified using flow cytometry. The total number of MDA231 cells per lung was estimated based on an assumption of 1.5×10^8 cells per mouse lung (20) (n=5). […] RNA reads were aligned to a hybrid genome containing the human and mouse genomes. […]

Nc1nc(=O)[nH]cc1F [5-FC, 5-fluorocytosine]
enrichment of human mRNAs compared to mouse mRNAs: over 1000 fold
